In the NIST ThermoML archive (doi:10.1021/je060271a):
Several values for one entry are separate records, joined by “and”; a condition that tells them apart may be missing. Equal values may be shown once.

Conditions: 283.16 K, Liquid, Vibrating tube method

CCCC(=O)OCC(COC(=O)CCC)(COC(=O)CCC)COC(=O)CCC [pentaerythritol tetrabutyrate]
Conditions	mass density
961.7 kPa	1059.5 kg/m3
999.7 kPa	1059.6 kg/m3
1040.4 kPa	1059.6 kg/m3
1083.6 kPa	1059.5 kg/m3
1139.2 kPa	1059.6 kg/m3
1188.5 kPa	1059.7 kg/m3
1241.1 kPa	1059.6 kg/m3
1292.9 kPa	1059.7 kg/m3
1371.5 kPa	1059.9 kg/m3
1415.8 kPa	1059.8 kg/m3
1495.3 kPa	1059.8 kg/m3
1575.5 kPa	1059.9 kg/m3
1654.8 kPa	1060 kg/m3
1780.7 kPa	1060 kg/m3
1864.8 kPa	1060 kg/m3
1998.8 kPa	1060 kg/m3
2122.7 kPa	1060.1 kg/m3
2233.6 kPa	1060.3 kg/m3
2404.2 kPa	1060.4 kg/m3
2613.1 kPa	1060.5 kg/m3
2776.8 kPa	1060.6 kg/m3
2989.2 kPa	1060.8 kg/m3
3065.6 kPa	1060.8 kg/m3
3087.4 kPa	1060.8 kg/m3
3106 kPa	1060.8 kg/m3
3124.9 kPa	1060.8 kg/m3
3144.5 kPa	1060.9 kg/m3
3170 kPa	1060.8 kg/m3
3189.5 kPa	1060.9 kg/m3
3209.5 kPa	1060.9 kg/m3
3233.2 kPa	1060.9 kg/m3
3253.5 kPa	1060.9 kg/m3
3273.9 kPa	1060.9 kg/m3
3294.9 kPa	1061 kg/m3
3316.1 kPa	1060.8 kg/m3
3341.2 kPa	1060.9 kg/m3
3361.8 kPa	1061 kg/m3
3387.1 kPa	1061.1 kg/m3
3409.1 kPa	1061 kg/m3
3431.1 kPa	1061 kg/m3
3452.8 kPa	1061 kg/m3
3479 kPa	1061.1 kg/m3
3502 kPa	1060.9 kg/m3
3524 kPa	1061.1 kg/m3
3546.7 kPa	1061.2 kg/m3
3574.4 kPa	1061.1 kg/m3
3597.5 kPa	1061.1 kg/m3
3620.7 kPa	1061.1 kg/m3
3648.8 kPa	1061.1 kg/m3
3672.5 kPa	1061.2 kg/m3
3696.2 kPa	1061.2 kg/m3
3720.5 kPa	1061.2 kg/m3
3749.6 kPa	1061.2 kg/m3
3773 kPa	1061.2 kg/m3
3845.7 kPa	1061.3 kg/m3
3868.4 kPa	1061.3 kg/m3
3891.5 kPa	1061.4 kg/m3
3914 kPa	1061.3 kg/m3
3941.5 kPa	1061.3 kg/m3
3964.7 kPa	1061.3 kg/m3
3987.6 kPa	1061.4 kg/m3
4009.4 kPa	1061.4 kg/m3
4029.8 kPa	1061.4 kg/m3
4033 kPa	1061.4 kg/m3
4416.7 kPa	1061.6 kg/m3
4447.7 kPa	1061.7 kg/m3
4473.5 kPa	1061.6 kg/m3
4500 kPa	1061.6 kg/m3
4526.4 kPa	1061.8 kg/m3
4559.5 kPa	1061.7 kg/m3
4586.3 kPa	1061.8 kg/m3
4619.9 kPa	1061.7 kg/m3
4643.6 kPa	1061.7 kg/m3
4676.5 kPa	1061.6 kg/m3
4704.4 kPa	1061.8 kg/m3
4732.4 kPa	1061.8 kg/m3
4765.8 kPa	1061.8 kg/m3
4794.4 kPa	1061.8 kg/m3
4823.6 kPa	1061.8 kg/m3
4858.1 kPa	1061.8 kg/m3
4887.2 kPa	1061.9 kg/m3
4916.6 kPa	1061.9 kg/m3
4946.3 kPa	1061.9 kg/m3
4983.2 kPa	1061.9 kg/m3
4995.1 kPa	1062.1 kg/m3
4995.4 kPa	1061.9 kg/m3
4997.5 kPa	1062.1 kg/m3
4999.9 kPa	1062 kg/m3
5001.3 kPa	1061.9 kg/m3
5002.4 kPa	1061.9 kg/m3
5003.4 kPa	1062 kg/m3
5003.7 kPa	1062 kg/m3
5004.3 kPa	1061.9 kg/m3
5004.6 kPa	1062 kg/m3
5004.8 kPa	1062 kg/m3
5005 kPa	1062 kg/m3
5005.3 kPa	1062.1 kg/m3
5005.5 kPa	1062 kg/m3
5005.6 kPa	1062.1 kg/m3 and 1062 kg/m3
5005.8 kPa	1062 kg/m3
5006 kPa	1061.8 kg/m3
5006.2 kPa	1061.9 kg/m3
5006.3 kPa	1061.9 kg/m3 and 1062 kg/m3
5006.5 kPa	1062.1 kg/m3 and 1062 kg/m3
5006.7 kPa	1061.9 kg/m3
5006.9 kPa	1061.9 kg/m3 and 1062 kg/m3
5007 kPa	1062.1 kg/m3 and 1062 kg/m3
5007.2 kPa	1061.9 kg/m3 and 1062.1 kg/m3 and 1062 kg/m3
5007.4 kPa	1061.9 kg/m3 and 1062 kg/m3
5007.5 kPa	1062 kg/m3
5007.7 kPa	1062 kg/m3 and 1061.9 kg/m3
5007.9 kPa	1062.1 kg/m3 and 1062 kg/m3
5008 kPa	1062 kg/m3 and 1062.1 kg/m3
5008.1 kPa	1061.9 kg/m3 and 1062.2 kg/m3 and 1062 kg/m3
5008.2 kPa	1062 kg/m3 and 1061.9 kg/m3
5008.3 kPa	1062 kg/m3 and 1061.9 kg/m3
5008.5 kPa	1062 kg/m3 and 1062.1 kg/m3
5008.6 kPa	1061.9 kg/m3
5009.4 kPa	1061.9 kg/m3
5009.6 kPa	1061.9 kg/m3 and 1062 kg/m3
5009.8 kPa	1062 kg/m3 and 1061.9 kg/m3
5010 kPa	1062 kg/m3
5010.1 kPa	1061.9 kg/m3 and 1062 kg/m3
5010.3 kPa	1062 kg/m3 and 1062.1 kg/m3 and 1061.9 kg/m3
5010.5 kPa	1061.9 kg/m3
5010.7 kPa	1062.1 kg/m3 and 1062 kg/m3
5010.8 kPa	1062 kg/m3 and 1061.9 kg/m3
5011 kPa	1062.2 kg/m3
5011.2 kPa	1062.1 kg/m3 and 1061.9 kg/m3
5011.3 kPa	1062 kg/m3
5011.7 kPa	1061.9 kg/m3 and 1062 kg/m3 and 1062.1 kg/m3
5011.9 kPa	1061.9 kg/m3 and 1062 kg/m3
5012 kPa	1061.9 kg/m3
5012.2 kPa	1062 kg/m3 and 1062.1 kg/m3 and 1061.9 kg/m3
5012.4 kPa	1062 kg/m3 and 1061.9 kg/m3 and 1062.1 kg/m3
5012.6 kPa	1062 kg/m3 and 1061.9 kg/m3 and 1061.8 kg/m3
5012.7 kPa	1062 kg/m3
5012.9 kPa	1062 kg/m3
5013.1 kPa	1062 kg/m3
5013.8 kPa	1062 kg/m3
5013.9 kPa	1062 kg/m3
5017.5 kPa	1062 kg/m3
5022.8 kPa	1062 kg/m3
5022.9 kPa	1062.1 kg/m3
5025.4 kPa	1062 kg/m3
5025.5 kPa	1062 kg/m3
